Data set [1] is described as follows: Assessment of In Vivo Pharmacokinetics in Beagle dog. To be noted: male Beagle dog, iv or po at 1 mg/kg or 3 mg/kg. As to the method: Assessment of In Vivo Pharmacokinetics
A total of 6 Male Non-naïve Beagle dog, weighing approximately 8.00-10.00 kg (Beijing Marshall Biotechnology Co. LTD), were dosed by intravenous injection (iv) or oral gavage (po) at 1 mg/kg or 3 mg/kg. The vehicles of IV and PO are 100% saline and 100% (0.5% MC in water), respectively. The IV dose was conducted via cephalic vein injection, PO via gavage administration. The animals were restrained manually, and approximately 0.5 mL blood/time point was collected from cephalic vein into pre-cooled K2EDTA tubes. Blood sample was put on wet ice and centrifuged at 4° C. (2000 g, 5 min) to obtain plasma within 15 minutes of sample collection. Plasma samples were analyzed by UPLC/MS-MS. PK parameters were estimated by non-compartmental model using WinNonlin6.4.

Data set [2] can be described thus: Assessment of In Vitro Metabolic Stability in dog liver microsomes. The conditions noted are these: for half-life at 1 μM: dog liver microsomes 0.5 mg/mL, 1 μM compound, NADPH, 37° C., read-out: Dog LM t1/2; for t1/2 in dog LM compared with the compound of example 1: comparison in words. Type of data set: in vitro ADME. The method, then: Assessment of In Vitro Metabolic Stability
Dog liver microsomes (0.5 mg/mL) were purchased from Corning. Stock solutions were prepared at 10 mM in DMSO for the test compound. Aliquots of the stock solutions were diluted to 0.5 mM with acetonitrile, and then further diluted upon the addition of liver microsomes/buffer to 1.5 μM. An aliquot of 30 μL of 1.5 μM solutions was mixed with 15 μL of 6 mM NADPH and the final concentration of NADPH was 2 mM, which had been pre-warmed to 37° C. Test compound and Ketanserin final concentrations were 1 μM. The plates were kept in a 37° C. water bath for the duration of the experiment. At each time point (0, 5, 15, 30, 45 minutes), 135 μL of acetonitrile was added into corresponding wells. After the final time point was quenched by acetonitrile, the assay plates were shaken (IKA, MTS 2/4) for 10 min (600 rpm/min) and then centrifuged at 5,594 g for 15 min (Thermo Multifuge×3R). Aliquots of the supernatant were taken, diluted 1:1 into distilled water, and analyzed by LC-MS/MS. The peak area response ratio to internal standard (PARR) of the compounds at 5, 15, 30, 45 minutes was compared to the PARR at time 0 to determine the percent of test compound remaining at each time point. Half-lives were calculated using Excel software, fitting to a single-phase exponential decay equation.
On the technique in general: Microsomes from liver hold many membrane-bound enzymes, among them those of drug oxidation.

Data set [3] concerns the target N-terminally GST-tagged HCK (75-526) (Homo sapiens (Human), UniProt P08631). Nature of the data set: HCK Kinase Assay (ProFluor Src-Family Kinase Assay). The data set is classed as biochemical. Summed up: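 ProFluor Src-family format: after the kinase reaction, protease solution was added for 60 min at room temperature (22-25° C), then stabilizer.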
Where [4] appears, read: HCK inhibitory activity, 50 μM ATP, read-out: HCK Activity.

This note sets out measurements from patent US11963960B2 (Flash Therapeutics, LLC, priority 2020, dated 2024).

Molecules are shown by their SMILES. Where two headings read alike, the source gives them in different places. Where only a bound is given, the exact number is not on record here.

N-terminally GST-tagged HCK (75-526), sequence (P08631 75-526): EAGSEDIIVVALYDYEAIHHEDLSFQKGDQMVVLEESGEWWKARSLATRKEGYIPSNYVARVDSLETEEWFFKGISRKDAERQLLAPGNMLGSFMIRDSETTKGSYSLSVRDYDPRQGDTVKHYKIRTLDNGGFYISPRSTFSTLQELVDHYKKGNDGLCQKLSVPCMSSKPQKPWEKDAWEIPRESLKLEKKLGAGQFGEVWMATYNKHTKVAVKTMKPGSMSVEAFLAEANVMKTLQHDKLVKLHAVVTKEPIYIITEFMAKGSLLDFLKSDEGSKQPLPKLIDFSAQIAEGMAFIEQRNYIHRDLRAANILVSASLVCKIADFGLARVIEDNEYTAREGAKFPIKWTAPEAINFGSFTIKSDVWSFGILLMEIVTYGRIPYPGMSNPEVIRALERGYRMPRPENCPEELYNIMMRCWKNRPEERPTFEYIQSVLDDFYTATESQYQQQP

Turning to `CN1CCN([C@H]2CC[C@H](n3cc(-c4ccc(Oc5ccccc5)cc4)c4c(N)ncnc43)CC2)CC1` [Example 1, 7-((trans)-4-(4-methylpiperazin-1-yl)cyclohexyl)-5-(4-phenoxyphenyl)-7H-pyrrolo[2,3-d]pyrimidin-4-amine], the “Dog BAV” value in data set [1] was found to be 0 % F. Besides, the half-life at 1 μM in data set [2] was 0.183 h. In addition, the IC50 was less than 50 nM in data set [3] and 3.3 nM in data set [3] (50 μM ATP, read-out: HCK IC50).

Consider `C[C@H]1CN([C@H]2CC[C@H](c3nc(-c4ccc(Oc5ccccc5)cc4F)c4c(N)ncnn43)CC2)CCN1` [Example 165, 5-(2-fluoro-4-phenoxyphenyl)-7-((trans)-4-((S)-3-methylpiperazin-1-yl)cyclohexyl)imidazo[5,1-f][1,2,4]triazin-4-amine], for which, in data set [2], the “t1/2 in dog LM compared with the compound of example 1” value is reported as “higher t1/2” and the half-life at 1 μM was found to be 2.78 h. Moreover, the IC50 in data set [3] (50 μM ATP, read-out: HCK IC50) was 5 nM. In data set [3] (setting [4]), the IC50 was less than 50 nM.

As for `C[C@H]1CN([C@H]2CC[C@H](n3cc(-c4ccc(Oc5ccccc5)cc4)c4c(N)ncnc43)CC2)CCN1` [Example 19, 7-((trans)-4-((S)-3-methylpiperazin-1-yl)cyclohexyl)-5-(4-phenoxyphenyl)-7H-pyrrolo[2,3-d]pyrimidin-4-amine], in data set [2], the “t1/2 in dog LM compared with the compound of example 1” value was “higher t1/2” and the half-life at 1 μM amounted to 1.4 h. Further, the IC50 in data set [3] (50 μM ATP, read-out: HCK IC50) stood at 17 nM. In data set [3] (setting [4]), the IC50 is less than 50 nM.

Turning to `C[C@H]1CN([C@H]2CC[C@H](n3nc(-c4ccc(Oc5ccccc5)cc4)c4c(N)ncnc43)CC2)CCN1` [Example 21, 1-((trans)-4-((S)-3-methylpiperazin-1-yl)cyclohexyl)-3-(4-phenoxyphenyl)-1H-pyrazolo[3,4-d] pyrimidin-4-amine], in data set [2], the “t1/2 in dog LM compared with the compound of example 1” value is “higher t1/2” and the half-life at 1 μM was 2.13 h. In addition, in data set [3] (50 μM ATP, read-out: HCK IC50), the IC50 came out at 43 nM. In data set [3] (setting [4]), the IC50 is less than 50 nM.

As to `CP1(=O)CCN([C@H]2CC[C@H](n3cc(-c4ccc(Oc5ccccc5)cc4)c4c(N)ncnc43)CC2)CC1` [Example 67, 1-((trans)-4-(4-amino-5-(4-phenoxyphenyl)-7H-pyrrolo[2,3-d]pyrimidin-7-yl)cyclohexyl)-4-methyl-1,4-azaphosphinane 4-oxide], in data set [3] (setting [4]), the IC50 was in the range of 50 to 250 nM.

Consider `Nc1ncnc2c1c(-c1ccc(Oc3ccccc3)cc1)cn2[C@H]1CC[C@@H](N2CCN3C(=O)CCC3C2)CC1` (stereo partly drawn) [Example 43, 2-((cis)-4-(4-amino-5-(4-phenoxyphenyl)-7H-pyrrolo[2,3-d]pyrimidin-7-yl)cyclohexyl)hexahydropyrrolo[1,2-a]pyrazin-6(2H)-one], for which, in data set [3] (setting [4]), the IC50 was less than 50 nM.

As to `CN1CCN([C@H]2CC[C@H](c3cc(-c4ccc(Oc5ccccc5)cc4)c4c(N)ncnn43)CC2)CC1` [Example 168, 7-((trans)-4-(4-Methylpiperazin-1-yl)cyclohexyl)-5-(4-phenoxyphenyl)pyrrolo[2,1-f][1,2,4]triazin-4-amine], the IC50 in data set [3] (setting [4]) is less than 50 nM.

For `CN1CCC([C@H]2OC[C@H](n3cc(-c4ccc(Oc5ccccc5)cc4)c4c(N)ncnc43)CO2)CC1` [Example 145, 7-((2r,5r)-2-(1-Methylpiperidin-4-yl)-1,3-dioxan-5-yl)-5-(4-phenoxyphenyl)-7H-pyrrolo[2,3-d]pyrimidin-4-amine], the IC50 in data set [3] (setting [4]) is less than 50 nM.

Take `C[C@H]1CN([C@H]2CC[C@H](n3cc(-c4ccc(Oc5ccccc5)cc4)c4c(N)ncnc43)CC2)CCN1C` [Example 23, 7-((trans)-4-((S)-3,4-dimethylpiperazin-1-yl)cyclohexyl)-5-(4-phenoxyphenyl)-7H-pyrrolo[2,3-d]pyrimidin-4-amine]: the IC50 in data set [3] (setting [4]) was less than 50 nM.

`Nc1ncnc2c1c(-c1ccc(Oc3ccccc3)cc1)cn2[C@H]1CC[C@@H](N2CCN3CCC[C@H]3C2)CC1` [Example 47, 7-((cis)-4-((S)-hexahydropyrrolo[1,2-a]pyrazin-2(1H)-yl)cyclohexyl)-5-(4-phenoxyphenyl)-7H-pyrrolo[2,3-d]pyrimidin-4-amine]: in data set [3] (setting [4]), the IC50 was 50 to 250 nM.

Consider `CN1CCN([C@H]2CC[C@H](c3cc(-c4ccc(NC(=O)Nc5cc(C(C)(C)C)on5)cc4)c4c(N)ncnn43)CC2)CC1` [Example 171], for which the IC50 in data set [3] (setting [4]) was less than 50 nM.

Consider `Nc1ncnc2c1c(-c1ccc(Oc3ccccc3)cc1)cn2[C@H]1CC[C@@H](N2CCNCC2=O)CC1` [Example 91, 1-((cis)-4-(4-Amino-5-(4-phenoxyphenyl)-7H-pyrrolo[2,3-d]pyrimidin-7-yl)cyclohexyl)piperazin-2-one], for which the IC50 in data set [3] (setting [4]) lay within 50 to 250 nM.

Regarding `COC(=O)CC1(N)CCC(n2cc(-c3ccc(Oc4ccccc4)cc3)c3c(N)ncnc32)CC1` (stereo not shown) [Example 95, Methyl 2-(1-amino-4-(4-amino-5-(4-phenoxyphenyl)-7H-pyrrolo[2,3-d]pyrimidin-7-yl)cyclohexyl) acetate], in data set [3] (setting [4]), the IC50 is 250 to 10000 nM.

With `Nc1ncnc2c1c(-c1ccc(Oc3ccccc3)cc1)cn2[C@H]1CC[C@@H](N2CCC[C@H](N)C2)CC1` [Example 57, 7-((cis)-4-((S)-3-aminopiperidin-1-yl)cyclohexyl)-5-(4-phenoxyphenyl)-7H-pyrrolo[2,3-d]pyrimidin-4-amine], the IC50 in data set [3] (setting [4]) was less than 50 nM.

Turning to `Nc1ncnc2c1c(-c1ccc(Oc3ccccc3)cc1)cn2[C@H]1CC[C@@H](N2CCNC3(CC3)C2)CC1` [Example 36, 7-((cis)-4-(4,7-diazaspiro[2.5]octan-7-yl)cyclohexyl)-5-(4-phenoxyphenyl)-7H-pyrrolo[2,3-d]pyrimidin-4-amine], in data set [3] (setting [4]), the IC50 was in the range of 50 to 250 nM.

`COc1cc(-c2cn(C3CCN(C4CCN(C)CC4)CC3)c3ncnc(N)c23)ccc1Oc1ccccc1` [Example 149, 5-(3-methoxy-4-phenoxyphenyl)-7-(1′-methyl-[1,4′-bipiperidin]-4-yl)-7H-pyrrolo[2,3-d]pyrimidin-4-amine]: the IC50 in data set [3] (setting [4]) was less than 50 nM.

In data set [3], `[2H]c1c([2H])c([2H])c(Oc2ccc(-c3cn([C@H]4CC[C@H](N5CCN(C)CC5)CC4)c4ncnc(N)c34)cc2)c([2H])c1[2H]` (single isomer, unassigned) [Example 104, 7-((trans)-4-(4-methylpiperazin-1-yl)cyclohexyl)-5-(4-pentadeuteriophenoxyphenyl)-7H-pyrrolo[2,3-d]pyrimidin-4-amine] came in with an IC50 of less than 50 nM.

For `C[C@@H]1CN([C@H]2CC[C@H](n3cc(-c4ccc(Oc5ccccc5)cc4F)c4c(N)ncnc43)CC2)CCN1` [Example 15, 5-(2-fluoro-4-phenoxyphenyl)-7-((trans)-4-((R)-3-methylpiperazin-1-yl)cyclohexyl)-7H-pyrrolo[2,3-d]pyrimidin-4-amine], in data set [3] (setting [4]), the IC50 was less than 50 nM.

Consider `Nc1ncnc2c1c(-c1ccc(Oc3ccccc3)cc1F)nn2[C@H]1CC[C@H](N2CCN(CCO)CC2)CC1` [Example 10, 2-(4-((trans)-4-(4-amino-3-(2-fluoro-4-phenoxyphenyl)-1H-pyrazolo[3,4-d]pyrimidin-1-yl)cyclohexyl)piperazin-1-yl)ethanol], for which the IC50 in data set [3] (setting [4]) is less than 50 nM.

`CN1CCN([C@H]2CC[C@@H](c3cn(-c4ccc(Oc5ccccc5)cc4)c4c(N)ncnc43)CC2)CC1` [Example 176, 7-((cis)-4-(4-methylpiperazin-1-yl)cyclohexyl)-5-(4-phenoxyphenyl)-5H-pyrrolo[3,2-d]pyrimidin-4-amine]: in data set [3] (setting [4]), the IC50 lay in the range of 250 to 10000 nM.

For `CN1CCN([C@H]2CC[C@H](n3cc(-c4ccc(Oc5ccccc5)cc4)c4c(N)ncnc43)CC2)CC1C(=O)O` (stereo partly drawn) [Example 34, 4-((trans)-4-(4-amino-5-(4-phenoxyphenyl)-7H-pyrrolo[2,3-d]pyrimidin-7-yl)cyclohexyl)-1-methylpiperazine-2-carboxylic acid], the IC50 in data set [3] (setting [4]) was less than 50 nM.

Take `C[C@@H]1CN([C@H]2CC[C@H](n3cc(-c4ccc(Oc5ccccc5)cc4)c4c(N)ncnc43)CC2)C[C@H](C)N1` [Example 25, 7-((trans)-4-((3S,5R)-3,5-dimethylpiperazin-1-yl)cyclohexyl)-5-(4-phenoxyphenyl)-7H-pyrrolo[2,3-d]pyrimidin-4-amine]: the IC50 in data set [3] (setting [4]) fell in the range of 50 to 250 nM.
